We go through one substance from patent US12083196B2, “Personal cleansing compositions with surfactants for increased foam performance” (ECOLAB USA INC., priority 2020, dated 2024).

The data set in a line: SITA Foam Analyzer foam decay. Type of data set: physicochemical. Particulars: single surfactant, 1%, FIG. 2. The text has this: The reagents used below include: • Alpha-Step® PC-48 is a C10-16 sodium methyl 2-sulfolaurate and disodium 2-sulfolaurate available from Stepan; • Stepan-Mild® L3 is a predominantly C12 reaction product of lauryl alcohol and lactic acid available from Stepan; • SLES is sodium laureth sulfate; • Cola® Teric is an amphoteric sultaine available from Colonial Chemical, Inc.; • Glucopon® […] is an alkyl polyglycoside available from BASF Corporation; • Suga® Nate is a sodium laurylglucosides hydrooxypropylsulfonate available from Colonial Chemicals, Inc; • Lathanol® LAL is a sodium lauryl sulfoacetate available from Stepan. […] To rename sample measurement files, right click on the open sample window, and click “save” to rename your sample file • 8) If an error occurs at any point with your sample, the measurement reading can be stopped by clicking the red square “Stop icon” or by pressing the large red button on the machine • 9) Organize the graph generated with the icons in the fourth section of the tool bar: create new plot, add/remove data from plot, change axis properties, and view properties. […] Right click to rename the plot, insert or remove the plot and display the foam buildup, foam decay, or both The foam decay time was also measured. […]

On to sodium laureth sulfate [SLES], for which the “loss of foaming over 10 minutes” value is “about 20 mL”.
